Test results reported in patent publication US20160297768A1, “NOVEL IMIDAZOLE DERIVATIVES AND THERAPEUTIC USE THEREOF” (INDUSTRY-ACA-DEMIC COORPERATION FOUNDATION, YONSEI …, priority 2013, published 2016).

Tests used:
[1] = tested on: A549 cells; assay: Apoptotic activity by MTT analysis, A549 cells; type: cell-based; settings: 15 μM of the compound, mean±standard deviation; for cytotoxicity at 15 µM: Homo sapiens, A549, 12 h, read-out: Apoptosis (%) A549 cells; for Apoptosis (%) A549 cells: 12 hours
Description: (§1) Lung cancer cells (A549), colorectal cancer cells (HCT116), HeLa cells, liver cancer cells (HepG2), T-cell leukemia cells (Jurkat), myeloid leukemia cells (K562), breast cancer cells (MCF-7 and MDA-MB-231) and myelocytic leukemia cells ([…]) were obtained from the American Type Culture Collection (ATCC), and cultured in 10% fetal bovine serum (FBS), 50 units/mL penicillin and 50 units/mL streptomycin-added RPMI 1640 (Invitrogen). The cells were maintained in a humidified 37° C., 5% CO2 atmosphere. The anticancer activity was detected by MTT analysis. Each type of cancer cells were plated in triplicate in a 96-well microtiter plate, and cultured at 37° C. for 24 hours. The cells were treated with each of the compounds prepared above at 37° C. for 12 hours. After the culturing of the cells, 10 μL of an MTT reagent ((3-[4,5-dimethyl-2-thiazolyl]-2,5-diphenyl-2H-tetrazoliumbromide) was added to each well, and cultured for 3.5 hours. The absorbance of each sample was detected using a UV microplate reader (SpectraMax 340PC 384, Molecular Devices) at 570 nm. The detection results were measured as a mean value. The effect of each compound on apoptosis is shown in Table 1.
(§2) The A549 and HeLa cells were treated with 15 μM of the compound for 12 hours. The apoptosis was detected using MTT (mean±standard deviation).

[2] = tested on: HeLa cells; assay: Apoptotic activity by MTT analysis, HeLa cells; type: cell-based; settings: 15 μM of the compound, mean±standard deviation; for cytotoxicity at 15 µM: Homo sapiens, HeLa, 12 h, read-out: Apoptosis (%) HeLa cells; for Apoptosis (%) HeLa cells: 12 hours
Description: as §1, §2

## CNC(=O)c1ccc(Cn2c(-c3cc(C(F)(F)F)cc(C(F)(F)F)c3)nc(-c3ccc(OC)cc3)c2-c2ccc(OC)cc2)cc1 [Example 119, 4-((2-(3,5-bis(trifluoromethyl)phenyl)-4,5-bis(4-methoxyphenyl)-1H-imidazole-1-yl)methyl)-N-methylbenzamide]
[1]
  cytotoxicity at 15 µM: 39 ± 0.76%
[2]
  cytotoxicity at 15 µM: 90 ± 1.73%

## NCCOCCOCCNC(=O)c1ccc(Cn2c(-c3cc(C(F)(F)F)cc(C(F)(F)F)c3)nc(-c3ccc(Cl)cc3)c2-c2ccc(Cl)cc2)cc1 [Example 49, N-(2-(2-(2-aminoethoxy)ethoxy)ethyl)-4-((2-(3,5-bis(trifluoromethyl)phenyl)-4,5-bis(4-chlorophenyl)-1H-imidazole-1-yl)methyl)benzamide]
[1]
  Apoptosis (%) A549 cells: 0 ± 1.26%
[2]
  Apoptosis (%) HeLa cells: 26 ± 0.38%

## COc1ccc(-c2nc(-c3cc(C(F)(F)F)cc(C(F)(F)F)c3)n(Cc3ccc(C(N)=S)cc3)c2-c2ccc(OC)cc2)cc1 [Example 118, 4-((2-(3,5-bis(trifluoromethyl)phenyl)-4,5-bis(4-methoxyphenyl)-1H-imidazole-1-yl)methyl)benzothioamide]
[1]
  cytotoxicity at 15 µM: 50 ± 0.41%
[2]
  cytotoxicity at 15 µM: 50 ± 1.66%

## COc1ccc(-c2nc(-c3cc(C(F)(F)F)cc(C(F)(F)F)c3)n(Cc3ccc(C(=O)NCCOCCCOCCN)cc3)c2-c2ccc(OC)cc2)cc1 [Example 196, N-(2-(3-(2-aminoethoxy)propoxy)ethyl)-4-((2-(3,5-bis(trifluoromethyl)phenyl)-4,5-bis(4-methoxyphenyl)-1H-imidazole-1-yl)methyl)benzamide]
[1]
  cytotoxicity at 15 µM: 0%
[2]
  cytotoxicity at 15 µM: 0%

## COc1ccc(-c2nc(-c3ccc4c(c3)-c3ccccc3C4)n(Cc3ccc(C(=N)N)cc3)c2-c2ccc(OC)cc2)cc1 [Example 185, 4-((2-(9H-fluorene-3-yl)-4,5-bis(4-methoxyphenyl)-1H-imidazole-1-yl)methyl)benzimidamide]
[1]
  cytotoxicity at 15 µM: 42 ± 1.15%
[2]
  cytotoxicity at 15 µM: 42 ± 0.38%

## NCCOCCOCCNC(=O)c1ccc(Cn2c(-c3cccc(C(F)(F)F)c3)nc(-c3ccc(Br)cc3)c2-c2ccc(Br)cc2)cc1 [Example 2, N-(2-(2-(2-aminoethoxy)ethoxy)ethyl)-4-((4,5-bis(4-bromophenyl)-2-(3-(trifluoromethyl)phenyl)-1H-imidazole-1-yl)methyl)benzamide]
[1]
  cytotoxicity at 15 µM: 80 ± 1.16%
[2]
  cytotoxicity at 15 µM: 88 ± 1.39%

## COc1ccc(-c2nc(-c3cc(C(F)(F)F)cc(C(F)(F)F)c3)n(Cc3ccc(C(=O)NCCCCCCCCN)cc3)c2-c2ccc(OC)cc2)cc1 [Example 193]
[1]
  cytotoxicity at 15 µM: 77 ± 1.65%
[2]
  cytotoxicity at 15 µM: 94 ± 1.02%

## COc1ccc(-c2nc(-c3cc(OC)cc(OC)c3)n(Cc3ccc(C(=O)NCCOCCOCCN)cc3)c2-c2ccc(OC)cc2)cc1 [Example 46, N-(2-(2-(2-aminoethoxy)ethoxy)ethyl)-4-((2-(3,5-dimethoxyphenyl)-4,5-bis(4-methoxyphenyl)-1H-imidazole-1-yl)methyl)benzamide]
[1]
  cytotoxicity at 15 µM: 37 ± 1.34%
[2]
  cytotoxicity at 15 µM: 48 ± 0.28%

## N=C(N)c1ccc(Cn2c(-c3cc(C(F)(F)F)cc(C(F)(F)F)c3)nc(-c3ccccc3)c2-c2ccccc2)cc1 [Example 184, 4-((2-(3,5-bis(trifluoromethyl)phenyl)-4,5-diphenyl-1H-imidazole-1-yl)methyl)benzimidamide]
[1]
  cytotoxicity at 15 µM: 79 ± 0.77%
[2]
  cytotoxicity at 15 µM: 79 ± 0.46%

## COc1ccc(-c2nc(-c3cc(OC)c(OC)c(OC)c3)n(Cc3ccc(C(=O)NCCOCCOCCN)cc3)c2-c2ccc(OC)cc2)cc1 [Example 102, N-(2-(2-(2-aminoethoxy)ethoxy)ethyl)-4-((4,5-bis(4-methoxyphenyl)-2-(3,4,5-trimethoxyphenyl)-1H-imidazole-1-yl)methyl)benzamide]
[1]
  Apoptosis (%) A549 cells: 25 ± 1.92%
[2]
  Apoptosis (%) HeLa cells: 29 ± 2.30%
